# Data as given in ChEMBL document CHEMBL1201862, “PubChem BioAssay data set” (2004).
# Active and inactive are the calls of the source.
# Key:
# [1] = biological target: T1, E3 ubiquitin-protein ligase XIAP (Homo sapiens, UniProt P98170); experiment: Counter Screen using XIAP-Bir3 for Chemical Antagonists of Bir1/2 domains of IAP-family anti-apoptotic proteins. [Related pubchem assays (depositor defined):AID1018, AID1449, AID1514, AID1638, AID1749, AID1750, AID488957, AID488963]
# [2] = biological target: T1, E3 ubiquitin-protein ligase XIAP; experiment: XIAP antagonists, biochemical, IAP family, fluorescence polarization (AID 1018); assay type: functional
# [3] = biological target: DNA damage-inducible transcript 3 protein (Mus musculus, UniProt P35639); assay type: functional, Cricetulus griseus
# [4] = biological target: Alkaline phosphatase, placental type (Homo sapiens, UniProt P05187); experiment: PLAP enzyme inhibitors, confirmation, biochemical, luminescence (AID 1512); assay type: functional
# [5] = biological target: Glyceraldehyde-3-phosphate dehydrogenase (Homo sapiens, UniProt P04406)
# [6] = biological target: T2, Alkaline phosphatase, tissue-nonspecific isozyme (Homo sapiens, UniProt P05186); experiment: human TNAP enzyme inhibitors, SAR follow-up, biochemical, luminescent, dose response (AID 1056)
# T2 sequence (P05186 whole entry): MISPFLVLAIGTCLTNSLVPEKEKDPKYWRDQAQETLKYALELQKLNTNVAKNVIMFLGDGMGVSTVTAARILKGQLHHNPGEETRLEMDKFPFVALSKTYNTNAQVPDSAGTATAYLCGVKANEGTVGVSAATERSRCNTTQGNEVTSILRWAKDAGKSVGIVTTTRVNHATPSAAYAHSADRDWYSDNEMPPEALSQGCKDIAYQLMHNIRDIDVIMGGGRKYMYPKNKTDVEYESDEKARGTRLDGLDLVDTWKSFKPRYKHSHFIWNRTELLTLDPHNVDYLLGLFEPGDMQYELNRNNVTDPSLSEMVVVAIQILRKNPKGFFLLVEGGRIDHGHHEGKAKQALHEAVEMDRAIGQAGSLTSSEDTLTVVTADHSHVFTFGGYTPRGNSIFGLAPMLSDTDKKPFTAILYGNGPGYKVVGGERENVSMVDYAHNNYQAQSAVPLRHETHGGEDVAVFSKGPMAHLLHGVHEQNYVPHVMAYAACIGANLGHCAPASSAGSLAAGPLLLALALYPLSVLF
# Saccharomyces cerevisiae = experiment: NALP1 inhibitor project selectivity study, Caspase-1/ASC signal blockade IC50 in S. cerevisiae (AID 488863); assay type: functional, organism-based
# [7] = biological target: NACHT, LRR and PYD domains-containing protein 1 (Homo sapiens, UniProt Q9C000); experiment: NALP1 inhibitors in yeast, dose response, luminescent (AID 488860); assay type: functional
# Beta-galactosidase = Beta-galactosidase (Escherichia coli, UniProt Q8VNN2); assay type: functional
# [8] = biological target: T3, Delta-type opioid receptor (Homo sapiens, UniProt P41143); experiment: HTS Image-Based Screen for Agonists of the DOR Receptor. [Related pubchem assays (depositor defined):AID1777, AID1786, AID2133]; assay type: functional
# [9] = biological target: Glucose-6-phosphate 1-dehydrogenase (Homo sapiens, UniProt P11413); experiment: human G6PD enzyme inhibitors, dose response, selectivity assay for P. falciparum G6PD inhibitor project, biochemical, fluorescence (AID 504792); assay type: functional
# [10] = biological target: T4, Kappa-type opioid receptor (Homo sapiens, UniProt P41145); assay type: functional
# [11] = biological target: T4, Kappa-type opioid receptor; assay type: functional; remark: listed apart in the source
# Mu-type opioid receptor = Mu-type opioid receptor (Homo sapiens, UniProt P35372); experiment: HTS Image-Based Screen for Agonists of the MOR Receptor. [Related pubchem assays (depositor defined):AID1777, AID1785, AID1786, AID2133]; assay type: functional;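 note: imaging of beta-arrestin GFP recruitment into spots after receptor activation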
# [12] = biological target: T3, Delta-type opioid receptor; experiment: HTS Image-Based Screen for Antagonists of the DOR Receptor. [Related pubchem assays (depositor defined):AID1777, AID1785, AID1786, AID2133]; assay type: functional
# T1 sequence (P98170 whole entry): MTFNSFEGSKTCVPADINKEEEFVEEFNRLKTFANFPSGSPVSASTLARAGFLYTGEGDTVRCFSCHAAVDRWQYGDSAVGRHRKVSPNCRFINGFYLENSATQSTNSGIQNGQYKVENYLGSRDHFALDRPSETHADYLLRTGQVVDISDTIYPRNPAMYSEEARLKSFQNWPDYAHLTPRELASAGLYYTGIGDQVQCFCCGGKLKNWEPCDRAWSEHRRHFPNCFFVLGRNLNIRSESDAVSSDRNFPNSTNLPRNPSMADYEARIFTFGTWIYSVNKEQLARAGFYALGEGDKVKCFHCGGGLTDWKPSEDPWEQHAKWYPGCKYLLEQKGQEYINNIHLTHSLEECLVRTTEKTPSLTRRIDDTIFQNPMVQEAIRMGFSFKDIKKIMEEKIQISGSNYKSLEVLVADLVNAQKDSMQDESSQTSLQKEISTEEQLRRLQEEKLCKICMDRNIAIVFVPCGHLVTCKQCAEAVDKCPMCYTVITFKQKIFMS
# T4 sequence (P41145 whole entry): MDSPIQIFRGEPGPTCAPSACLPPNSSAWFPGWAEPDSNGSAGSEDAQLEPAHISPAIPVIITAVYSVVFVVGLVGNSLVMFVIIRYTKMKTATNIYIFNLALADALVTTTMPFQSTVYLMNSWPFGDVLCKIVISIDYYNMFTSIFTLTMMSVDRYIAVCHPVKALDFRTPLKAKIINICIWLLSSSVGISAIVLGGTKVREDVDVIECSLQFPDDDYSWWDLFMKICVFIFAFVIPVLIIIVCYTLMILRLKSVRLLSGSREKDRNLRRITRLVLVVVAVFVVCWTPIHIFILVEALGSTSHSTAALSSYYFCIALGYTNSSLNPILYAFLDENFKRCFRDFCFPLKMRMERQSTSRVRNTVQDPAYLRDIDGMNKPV
# T3 sequence (P41143 whole entry): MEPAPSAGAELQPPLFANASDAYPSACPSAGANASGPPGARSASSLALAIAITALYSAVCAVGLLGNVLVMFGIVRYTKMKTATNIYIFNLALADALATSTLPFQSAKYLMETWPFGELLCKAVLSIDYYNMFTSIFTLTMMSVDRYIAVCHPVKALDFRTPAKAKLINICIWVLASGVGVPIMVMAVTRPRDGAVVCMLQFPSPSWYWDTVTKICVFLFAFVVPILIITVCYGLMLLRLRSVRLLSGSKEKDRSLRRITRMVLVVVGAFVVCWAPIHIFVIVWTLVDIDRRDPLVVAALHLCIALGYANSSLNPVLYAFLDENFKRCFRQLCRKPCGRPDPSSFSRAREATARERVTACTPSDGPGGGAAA
# Glucose-6-phosphate 1-dehydrogenase, sequence (P11413 whole entry): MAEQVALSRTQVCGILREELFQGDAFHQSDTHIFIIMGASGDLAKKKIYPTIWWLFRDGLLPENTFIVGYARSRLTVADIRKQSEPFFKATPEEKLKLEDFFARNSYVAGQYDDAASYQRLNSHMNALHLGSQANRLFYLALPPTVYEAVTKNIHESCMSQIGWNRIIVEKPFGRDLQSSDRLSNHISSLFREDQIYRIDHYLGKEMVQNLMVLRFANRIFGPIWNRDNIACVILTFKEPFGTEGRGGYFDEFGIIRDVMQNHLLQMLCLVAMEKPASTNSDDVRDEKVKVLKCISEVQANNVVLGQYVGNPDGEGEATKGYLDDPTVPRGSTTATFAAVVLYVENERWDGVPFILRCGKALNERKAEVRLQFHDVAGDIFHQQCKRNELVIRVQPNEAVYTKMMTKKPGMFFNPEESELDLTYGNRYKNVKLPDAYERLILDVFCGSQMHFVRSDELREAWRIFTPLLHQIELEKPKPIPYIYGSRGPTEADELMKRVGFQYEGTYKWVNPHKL
# NACHT, LRR and PYD domains-containing protein 1, sequence (Q9C000 1-1212 limits assumed): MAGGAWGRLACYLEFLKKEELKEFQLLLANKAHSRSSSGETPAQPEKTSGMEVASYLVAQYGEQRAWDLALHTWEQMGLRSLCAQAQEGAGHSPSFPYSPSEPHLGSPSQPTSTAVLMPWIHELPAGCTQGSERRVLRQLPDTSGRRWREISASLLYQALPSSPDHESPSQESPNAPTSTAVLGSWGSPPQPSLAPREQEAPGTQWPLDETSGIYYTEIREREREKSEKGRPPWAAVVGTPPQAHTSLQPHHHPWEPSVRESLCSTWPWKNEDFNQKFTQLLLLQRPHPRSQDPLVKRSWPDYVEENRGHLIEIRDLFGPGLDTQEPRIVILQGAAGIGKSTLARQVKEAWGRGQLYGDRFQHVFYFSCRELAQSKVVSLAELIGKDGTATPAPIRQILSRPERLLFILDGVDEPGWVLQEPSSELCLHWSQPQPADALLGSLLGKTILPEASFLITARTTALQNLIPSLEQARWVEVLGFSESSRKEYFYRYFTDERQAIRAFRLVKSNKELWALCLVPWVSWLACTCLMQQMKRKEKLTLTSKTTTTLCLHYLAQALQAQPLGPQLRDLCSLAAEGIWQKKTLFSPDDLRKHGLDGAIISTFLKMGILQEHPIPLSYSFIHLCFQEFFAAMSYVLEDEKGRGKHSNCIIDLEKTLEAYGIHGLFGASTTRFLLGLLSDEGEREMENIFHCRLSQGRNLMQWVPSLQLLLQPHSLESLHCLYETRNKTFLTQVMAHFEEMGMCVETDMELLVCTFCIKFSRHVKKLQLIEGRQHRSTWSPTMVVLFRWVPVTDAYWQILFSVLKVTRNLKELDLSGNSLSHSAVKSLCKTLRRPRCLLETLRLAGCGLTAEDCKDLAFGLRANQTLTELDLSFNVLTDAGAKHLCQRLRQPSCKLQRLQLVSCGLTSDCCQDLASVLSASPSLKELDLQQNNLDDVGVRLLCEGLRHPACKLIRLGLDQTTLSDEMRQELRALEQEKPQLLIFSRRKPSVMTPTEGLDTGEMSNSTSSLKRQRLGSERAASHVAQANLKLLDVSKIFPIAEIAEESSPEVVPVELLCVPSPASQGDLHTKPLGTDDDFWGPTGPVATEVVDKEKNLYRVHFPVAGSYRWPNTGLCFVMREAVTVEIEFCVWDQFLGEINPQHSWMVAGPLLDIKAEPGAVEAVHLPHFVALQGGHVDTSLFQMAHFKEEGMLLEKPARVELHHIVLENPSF
# NACHT, LRR and PYD domains-containing protein 1, sequence (Q9C000 1213-1473 limits assumed): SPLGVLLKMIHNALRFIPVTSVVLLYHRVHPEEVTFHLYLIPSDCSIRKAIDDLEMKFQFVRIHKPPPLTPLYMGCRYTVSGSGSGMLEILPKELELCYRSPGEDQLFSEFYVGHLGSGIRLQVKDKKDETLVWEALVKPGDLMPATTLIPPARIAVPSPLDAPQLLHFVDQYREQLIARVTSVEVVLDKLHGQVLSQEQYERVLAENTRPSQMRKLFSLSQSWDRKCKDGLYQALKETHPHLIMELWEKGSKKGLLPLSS
# Alkaline phosphatase, placental type, sequence (P05187 whole entry): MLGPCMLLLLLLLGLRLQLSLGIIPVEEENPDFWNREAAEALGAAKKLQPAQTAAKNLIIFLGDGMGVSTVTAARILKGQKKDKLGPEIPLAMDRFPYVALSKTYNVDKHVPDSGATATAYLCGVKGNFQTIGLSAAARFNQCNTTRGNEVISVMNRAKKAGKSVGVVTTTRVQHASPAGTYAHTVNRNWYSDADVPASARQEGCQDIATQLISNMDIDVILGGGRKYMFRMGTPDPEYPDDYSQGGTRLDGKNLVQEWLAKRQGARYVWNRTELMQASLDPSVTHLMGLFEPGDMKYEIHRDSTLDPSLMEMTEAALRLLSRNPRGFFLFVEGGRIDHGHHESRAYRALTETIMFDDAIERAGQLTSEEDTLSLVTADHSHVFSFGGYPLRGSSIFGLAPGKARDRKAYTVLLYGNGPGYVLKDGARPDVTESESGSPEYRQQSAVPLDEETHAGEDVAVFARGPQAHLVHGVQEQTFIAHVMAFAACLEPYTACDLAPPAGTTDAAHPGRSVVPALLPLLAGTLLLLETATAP
# DNA damage-inducible transcript 3 protein, sequence (P35639 whole entry): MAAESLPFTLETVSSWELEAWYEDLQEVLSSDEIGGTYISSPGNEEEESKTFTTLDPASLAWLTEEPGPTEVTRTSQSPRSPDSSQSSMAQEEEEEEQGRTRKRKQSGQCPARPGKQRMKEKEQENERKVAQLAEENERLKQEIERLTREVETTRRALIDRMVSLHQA
# Beta-galactosidase, sequence (Q8VNN2 whole entry): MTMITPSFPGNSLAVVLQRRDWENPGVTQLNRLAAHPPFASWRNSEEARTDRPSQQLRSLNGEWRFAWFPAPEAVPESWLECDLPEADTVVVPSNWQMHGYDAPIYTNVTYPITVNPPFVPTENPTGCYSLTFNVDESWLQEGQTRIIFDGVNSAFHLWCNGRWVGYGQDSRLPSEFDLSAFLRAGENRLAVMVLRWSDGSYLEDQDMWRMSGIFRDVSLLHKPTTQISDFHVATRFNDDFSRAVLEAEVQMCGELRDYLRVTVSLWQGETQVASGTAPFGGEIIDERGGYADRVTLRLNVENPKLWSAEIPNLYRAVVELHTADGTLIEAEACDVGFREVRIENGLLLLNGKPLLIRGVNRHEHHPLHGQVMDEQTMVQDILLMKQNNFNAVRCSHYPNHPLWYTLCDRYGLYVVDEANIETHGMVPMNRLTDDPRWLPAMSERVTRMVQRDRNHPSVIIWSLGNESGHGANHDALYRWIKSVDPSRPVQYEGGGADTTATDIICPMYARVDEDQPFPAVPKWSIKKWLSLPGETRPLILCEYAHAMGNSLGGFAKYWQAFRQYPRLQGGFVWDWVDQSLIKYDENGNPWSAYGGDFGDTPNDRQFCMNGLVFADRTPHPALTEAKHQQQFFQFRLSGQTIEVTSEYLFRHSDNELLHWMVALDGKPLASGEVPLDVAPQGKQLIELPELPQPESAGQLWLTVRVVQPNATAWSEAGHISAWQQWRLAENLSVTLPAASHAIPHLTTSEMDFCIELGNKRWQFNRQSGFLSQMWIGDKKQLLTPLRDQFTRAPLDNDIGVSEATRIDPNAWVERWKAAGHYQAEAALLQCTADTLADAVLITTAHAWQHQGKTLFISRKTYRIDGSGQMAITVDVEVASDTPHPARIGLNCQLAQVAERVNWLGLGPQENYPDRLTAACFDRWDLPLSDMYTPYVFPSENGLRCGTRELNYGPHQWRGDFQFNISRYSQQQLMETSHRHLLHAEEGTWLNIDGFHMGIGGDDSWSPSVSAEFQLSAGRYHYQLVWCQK
smiles,measurement,setting,value
CCCS(=O)(=O)N1CCN(C(=O)c2ccc(-c3ccccc3)cc2)CC1,IC50,[1],> 100 µM (inactive)
same,IC50,[2],> 100 µM (not active)
COc1ccc(CNc2oc(-c3cccc4ccccc34)nc2C#N)cc1,Absolute IC50 (CHOP),[3],10 µM
COc1ccc(CCc2nc(N)nn2-c2ccccc2)cc1OC,IC50,[4],> 100 µM (inactive)
same,IC50,[5],> 100 µM (not active)
same,IC50,[6],> 100 µM (inactive)
CC1CN(S(=O)(=O)c2cccc(C(=O)Nc3ccc(S(=O)(=O)Nc4ncccn4)cc3)c2)CC(C)O1 (configuration not stated),IC50,[1],> 100 µM (inactive)
same,IC50,[2],> 100 µM (not active)
CC(C)NC(=O)CCCOc1ccc(Cl)cc1Cl,IC50,Saccharomyces cerevisiae,35.8 µM (active)
same,IC50,[7],40 µM (active)
CC1CCc2c(nc3sc4c(c3c2N)CCCC4)C1 (configuration not stated),EC50,Beta-galactosidase,> 31.5 µM (inactive)
same,EC50,[8],> 32 µM (inactive)
same,IC50,[9],> 80 µM (inactive)
same,IC50,[10],2.2 µM (active)
same,IC50,[11],> 32 µM
same,EC50,Mu-type opioid receptor,> 32 µM (inactive)
same,IC50,[12],> 32 µM (inactive)
